Laboratory results as given in patent US20250041312A1, “METHODS OF ADMINISTERING A MODULATOR OF HEMOGLOBIN” (Global Blood Therapeutics, Inc., priority 2021, published 2025).
Read-outs that look alike come from different tables or passages of the source.

Assay: SAD study in healthy volunteers: PK in plasma, whole blood, red blood cells
Type: in vivo, human
Settings: human; for half-life: read-out: t1/2 (converted); for Tmax: median
Description: To evaluate the safety and tolerability of single ascending doses of Compound I, 48 healthy volunteers (42 in the fasted state and 6 in the fed state) aged 18 to 55 years old were administered single ascending doses (50 mg to 2200 mg) of Compound I, while 16 healthy volunteers (14 in the fasted state and 2 in the fed state) aged 18 to 55 years old were administered placebo in a double blind, randomized, sequential manner.
Whole blood pharmacokinetic (PK) parameters, using actual sample collection times, and hemoglobin occupancy after single ascending dose are shown in Table 5 (containing data from both healthy volunteers and SCD subjects) and Table 6 (containing data from only healthy volunteer subjects).

- Cmax (whole blood, 2200 mg, HV single 2200 mg, mean): 390 µg/mL
- AUC(0-t) (whole blood, 2200 mg, HV single 2200 mg, whole blood, mean, blood collected up to day 7, read-out: AUC0-t): 48000 µg·h/mL
- Cmax (whole blood, po, 50 mg, HV single oral 50 mg (Cohort 1), geometric mean): 8 µg/mL
- AUC(0-t) (whole blood, po, 50 mg, HV single oral 50 mg (Cohort 1), whole blood, geometric mean, read-out: AUClast): 6810 µg·h/mL
- half-life (whole blood, po, 50 mg, HV single oral 50 mg (Cohort 1), whole blood, geometric mean): 683 h
- Cmax (whole blood, po, 100 mg, HV single oral 100 mg (Cohort 2), geometric mean): 17.3 µg/mL
- AUC(0-t) (whole blood, po, 100 mg, HV single oral 100 mg (Cohort 2), whole blood, geometric mean, read-out: AUClast): 14300 µg·h/mL
- half-life (whole blood, po, 100 mg, HV single oral 100 mg (Cohort 2), whole blood, geometric mean): 698 h
- Cmax (whole blood, po, 200 mg, HV single oral 200 mg (Cohort 3), geometric mean): 34.2 µg/mL
- AUC(0-t) (whole blood, po, 200 mg, HV single oral 200 mg (Cohort 3), whole blood, geometric mean, read-out: AUClast): 28600 µg·h/mL
- half-life (whole blood, po, 200 mg, HV single oral 200 mg (Cohort 3), whole blood, geometric mean): 677 h
- Cmax (whole blood, po, 400 mg, HV single oral 400 mg (Cohort 5), geometric mean): 87.6 µg/mL
- AUC(0-t) (whole blood, po, 400 mg, HV single oral 400 mg (Cohort 5), whole blood, geometric mean, read-out: AUClast): 62200 µg·h/mL
- half-life (whole blood, po, 400 mg, HV single oral 400 mg (Cohort 5), whole blood, geometric mean): 609 h
- Cmax (whole blood, po, 800 mg, HV single oral 800 mg (Cohort 6), geometric mean): 149 µg/mL
- AUC(0-t) (whole blood, po, 800 mg, HV single oral 800 mg (Cohort 6), whole blood, geometric mean, read-out: AUClast): 103000 µg·h/mL
- half-life (whole blood, po, 800 mg, HV single oral 800 mg (Cohort 6), whole blood, geometric mean): 625 h
- Cmax (whole blood, po, 1400 mg, HV single oral 1400 mg (Cohort 7), geometric mean): 230 µg/mL
- AUC(0-t) (whole blood, po, 1400 mg, HV single oral 1400 mg (Cohort 7), whole blood, geometric mean, read-out: AUClast): 192000 µg·h/mL
- half-life (whole blood, po, 1400 mg, HV single oral 1400 mg (Cohort 7), whole blood, geometric mean): 656 h
- Cmax (whole blood, po, 2200 mg, HV single oral 2200 mg (Cohort 8), geometric mean): 387 µg/mL
- AUC(0-t) (whole blood, po, 2200 mg, HV single oral 2200 mg (Cohort 8), whole blood, geometric mean, read-out: AUClast): 264000 µg·h/mL
- half-life (whole blood, po, 2200 mg, HV single oral 2200 mg (Cohort 8), whole blood, geometric mean): 590 h
- Tmax (HV single 50 mg, whole blood): 24 h
- Tmax (HV single 100 mg, whole blood): 24 h
- Tmax (HV single 200 mg, whole blood): 8 h
- Tmax (HV single 400 mg, whole blood): 8 h
- Tmax (HV single 800 mg, whole blood): 16 h
- Tmax (HV single 1400 mg, whole blood): 12 h
- Tmax (HV single 2200 mg, whole blood): 24 h
- AUC(0-inf) (HV single oral 50 mg (Cohort 1), plasma, geometric mean): 34.2 µg·h/mL
- Tmax (HV single oral 50 mg (Cohort 1), plasma): 0.75 h
- AUC(0-inf) (HV single oral 50 mg (Cohort 1), red blood cells (calculated conc.), geometric mean): 18100 µg·h/mL
- Tmax (HV single oral 50 mg (Cohort 1), red blood cells (conc. calculated from blood, plasma, hematocrit)): 24 h
- AUC(0-inf) (HV single oral 50 mg (Cohort 1), whole blood, geometric mean): 7490 µg·h/mL
- Tmax (HV single oral 50 mg (Cohort 1), whole blood): 24 h
- AUC(0-inf) (HV single oral 100 mg (Cohort 2), plasma, geometric mean): 74.5 µg·h/mL
- Tmax (HV single oral 100 mg (Cohort 2), plasma): 1 h
- AUC(0-inf) (HV single oral 100 mg (Cohort 2), red blood cells (calculated conc.), geometric mean): 38500 µg·h/mL
- Tmax (HV single oral 100 mg (Cohort 2), red blood cells (calculated conc.)): 24 h
- AUC(0-inf) (HV single oral 100 mg (Cohort 2), whole blood, geometric mean): 15900 µg·h/mL
- Tmax (HV single oral 100 mg (Cohort 2), whole blood): 24 h
- AUC(0-inf) (HV single oral 200 mg (Cohort 3), plasma, geometric mean): 152 µg·h/mL
- Tmax (HV single oral 200 mg (Cohort 3), plasma): 1 h
- AUC(0-inf) (HV single oral 200 mg (Cohort 3), red blood cells (calculated conc.), geometric mean): 71200 µg·h/mL
- Tmax (HV single oral 200 mg (Cohort 3), red blood cells (calculated conc.)): 8 h
- AUC(0-inf) (HV single oral 200 mg (Cohort 3), whole blood, geometric mean): 31600 µg·h/mL
- Tmax (HV single oral 200 mg (Cohort 3), whole blood): 8 h
- AUC(0-inf) (HV single oral 400 mg (Cohort 5), plasma, geometric mean): 361 µg·h/mL
- Tmax (HV single oral 400 mg (Cohort 5), plasma): 1 h
- AUC(0-inf) (HV single oral 400 mg (Cohort 5), red blood cells (calculated conc.), geometric mean): 163000 µg·h/mL
- Tmax (HV single oral 400 mg (Cohort 5), red blood cells (calculated conc.)): 10 h
- AUC(0-inf) (HV single oral 400 mg (Cohort 5), whole blood, geometric mean): 67200 µg·h/mL
- Tmax (HV single oral 400 mg (Cohort 5), whole blood): 8 h
- AUC(0-inf) (HV single oral 800 mg (Cohort 6), plasma, geometric mean): 623 µg·h/mL
- Tmax (HV single oral 800 mg (Cohort 6), plasma): 2.5 h
- AUC(0-inf) (HV single oral 800 mg (Cohort 6), red blood cells (calculated conc.), geometric mean): 266000 µg·h/mL
- Tmax (HV single oral 800 mg (Cohort 6), red blood cells (calculated conc.)): 36 h
- AUC(0-inf) (HV single oral 800 mg (Cohort 6), whole blood, geometric mean): 111000 µg·h/mL
- Tmax (HV single oral 800 mg (Cohort 6), whole blood): 16 h
- AUC(0-inf) (HV single oral 1400 mg (Cohort 7), plasma, geometric mean): 1080 µg·h/mL
- Tmax (HV single oral 1400 mg (Cohort 7), plasma): 2.5 h
- AUC(0-inf) (HV single oral 1400 mg (Cohort 7), red blood cells (calculated conc.), geometric mean): 499000 µg·h/mL
- Tmax (HV single oral 1400 mg (Cohort 7), red blood cells (calculated conc.)): 30 h
- AUC(0-inf) (HV single oral 1400 mg (Cohort 7), whole blood, geometric mean): 210000 µg·h/mL
- Tmax (HV single oral 1400 mg (Cohort 7), whole blood): 12 h
- AUC(0-inf) (HV single oral 2200 mg (Cohort 8), plasma, geometric mean): 1430 µg·h/mL
- Tmax (HV single oral 2200 mg (Cohort 8), plasma): 3.5 h
- AUC(0-inf) (HV single oral 2200 mg (Cohort 8), red blood cells (calculated conc.), geometric mean): 670000 µg·h/mL
- Tmax (HV single oral 2200 mg (Cohort 8), red blood cells (calculated conc.)): 24 h
- AUC(0-inf) (HV single oral 2200 mg (Cohort 8), whole blood, geometric mean): 282000 µg·h/mL
- Tmax (HV single oral 2200 mg (Cohort 8), whole blood): 24 h
- Tmax (healthy volunteers n=6, single 100 mg, plasma): 1 h
SMILES: O=Cc1c(O)cccc1OC[C@@H]1COCCN1C(=O)c1cccnc1CCO [Compound I, (S)-2-hydroxy-6-((4-(2-(2-hydroxyethyl)nicotinoyl)morpholin-3-yl)methoxy)benzaldehyde]
